Results from ChEMBL document CHEMBL1122856, “Study on the inhibition of adenosine deaminase” (J Med Chem, 1985).

Molecular target: T1, Adenosine deaminase (Bos taurus, UniProt P56658)
T1 sequence (P56658 whole entry): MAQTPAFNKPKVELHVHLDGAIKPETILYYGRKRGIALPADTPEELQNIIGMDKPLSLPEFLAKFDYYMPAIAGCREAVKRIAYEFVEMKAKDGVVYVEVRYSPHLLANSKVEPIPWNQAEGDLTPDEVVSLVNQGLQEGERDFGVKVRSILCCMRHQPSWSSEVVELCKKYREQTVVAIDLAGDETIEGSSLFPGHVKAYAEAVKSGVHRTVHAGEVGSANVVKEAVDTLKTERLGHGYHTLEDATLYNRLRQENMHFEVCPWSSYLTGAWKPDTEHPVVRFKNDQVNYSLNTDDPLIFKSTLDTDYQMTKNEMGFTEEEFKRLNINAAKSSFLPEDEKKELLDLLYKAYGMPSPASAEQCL
Assay: Ability to inhibit the deamination of adenosine by calf intestine adenosine deaminase

Ki: 61 µM
SMILES: Cc1c([C@@H](C)O)ncn1C1O[C@H](CO)[C@@H](O)[C@H]1O (stereo partly specified)
